Results reported in PubChem BioAssay AID179 (DTP/NCI, 2004).
Calls of active or inactive are those of the source.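 How the source made its calls: active means compounds giving half or more protection of infected cells from virus-caused growth loss, again on retest; inactive means the rest.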

Test system: CEM cells HIV-1 protection, formazan growth assay
Assay: NCI AIDS Antiviral Assay
Settings: for IC50: measured here: growth of uninfected CEM cells
In short: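 Category rules: moderately active means at least 50% protection on retest, and confirmed active means 100% protection reproducibly. The underlying data came from a formazan growth assay in HIV-1-infected CEM cells.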

Compound	EC50	IC50	outcome
CC(=O)N(CC1CCCN(C)C1)C12CC3CC(CC(C3)C1)C2 (stereo unspecified)	> 117 µM	> 117 µM	–
Cc1ccc(NC(=O)c2c(NC(=O)CN3CCOCC3)c(C#N)c3n2CCC3)cc1	> 200 µM	> 200 µM	–
Cc1cn(C2CC(N=[N+]=[N-])C(COC(=O)CCCCCCCCCc3ccccc3)O2)c(=O)[nH]c1=O (stereo unspecified)	0.129 µM	110 µM	–
N#C/C(=C\NC(=S)C(N)=S)C(=O)c1ccc2ccccc2c1	> 200 µM	58.9 µM	–
Cc1ccc2c(c1)C(=O)N1CCC[C@H]1C=N2	> 200 µM	3.63 µM	–
COc1cc2c(c(OC)c1OC)-c1ccc(O)cc1C(NC(C)=O)CC2 (stereo unspecified)	> 2 µM	0.0603 µM	–
C/C=C1\Oc2ccc(OC)cc2S1(=O)=O	17 µM	31.6 µM	–
CC(C)(C)OC(=O)NC(CCCCNC(=O)OCc1ccccc1)C(=O)NCCNc1ccc(NCCNC(=O)C(CCCCNC(=O)OCc2ccccc2)NC(=O)OC(C)(C)C)c2c1C(=O)c1ccccc1C2=O (stereo unspecified)	> 151 µM	8.51 µM	–
COc1ccc(-c2cc3c(nn2)-c2ccccc2C3=O)cc1	> 100 µM	> 100 µM	–
N[C@@H](CSS[C@H](C(=O)O)[C@@H](SSC[C@H](N)C(=O)O)C(=O)O)C(=O)O	> 200 µM	35.5 µM	–
C#CC[N+](C)(CC#C)CC#C	–	–	inactive
C=CC1CC1(CO)COc1cc(Cl)nc(N)n1 (stereo unspecified)	> 200 µM	141 µM	–
COc1cc(OC)c(-c2cc(=O)c3c(OC)c(OC)c(OC)c(OC)c3o2)cc1OC	> 200 µM	19.5 µM	–
CC(C)=CCC[C@@H](C)C1=C(O)C(Nc2ccccc2F)=C(C)C(=O)C1=O	> 200 µM	15.8 µM	–
COc1cc2cc(C(=O)N3CC(CCl)c4c3cc(NC(=O)OCc3ccc([N+](=O)[O-])cc3)c3ccccc43)[nH]c2c(OC)c1OC (stereo unspecified)	> 200 µM	2.88 µM	–
O=C1CC[C@H]2CO[C@H](c3ccccc3)N12	> 200 µM	> 200 µM	–
O=C(O)c1ccc(P(=O)(O)c2ccc(C(=O)O)cc2Br)c(Br)c1	> 200 µM	> 200 µM	–
CC1(C)CSCC(C)(C)C2(C=CC=CC=N2)C1=O (stereo unspecified)	> 191 µM	26.3 µM	–
NC(C(F)(F)F)(C(F)(F)F)P(=O)(Cc1ccccc1)Cc1ccccc1	> 200 µM	145 µM	–
CCOC(=O)N/N=C/c1cccs1	> 200 µM	> 200 µM	–
N#C/C(=C\c1ccc(O)c(O)c1)C(=O)NCCCCNC(=O)/C(C#N)=C/c1ccc(O)c(O)c1	> 200 µM	24 µM	–

Compound	EC50	IC50	outcome
COc1ccc2nc3cc([N+](=O)[O-])ccc3c(NCCCN(C)C)c2c1	> 2 µM	0.38 µM	–
CCC1(CC)C(=O)NN(C(=O)c2ccc(Cl)cc2)C1=O	> 200 µM	> 200 µM	–
COC1=CC2(OC)CCC1C1=C2C(=O)c2c(O)cccc2C1=O (stereo unspecified)	–	–	inactive
CC(=O)OCC1OC(NC(=S)N/N=C2\CC(c3ccccc3)Oc3ccccc32)C(OC(C)=O)C(OC(C)=O)C1OC(C)=O (stereo unspecified)	–	–	inactive
CC1=C(c2ccc(C)cc2)NC(=S)C(C)C(c2ccc(C)cc2)=N1 (stereo unspecified)	> 200 µM	97.7 µM	–
CC(C)=CC(=O)CC(=O)C(=O)NCCNC(=O)C(=O)CC(=O)C=C(C)C	> 2.09 µM	> 2.09 µM	–
O=C(Oc1cccc2cccnc12)c1ccccc1	> 200 µM	33.9 µM	–
CCCCOC(=O)C(=O)/C(=C\n1c(=S)[nH]c2cc(C)ccc21)C(=O)C=C(C)C	> 200 µM	> 200 µM	–
Brc1cccc(-c2nc3ccccc3[nH]2)c1	> 132 µM	87.1 µM	–
Cc1cc2c(C(C)C)c(O)c(O)c(C=Nc3ccc(-c4ccccc4)cc3)c2c(O)c1-c1c(C)cc2c(C(C)C)c(O)c(O)c(C=Nc3ccc(-c4ccccc4)cc3)c2c1O	1.62 µM	> 200 µM	–
O=C1OCCN(CCO)C12CCCC2	> 759 µM	> 759 µM	–
COc1ccccc1-n1c(N)c2c(C)c(-c3ccccc3)[nH]c2nc1=S	> 200 µM	38 µM	–
C[C@H]1[C@H](C)CC[C@]2(C(=O)O)CCC3(COC(=O)/C=C/c4ccc(O)cc4)C(=CCC4[C@@]5(C)CC[C@H](O)C(C)(C)C5CC[C@]43C)[C@H]12 (stereo partly specified)	> 11.5 µM	5.37 µM	–
O=c1oc2ccccc2c(O)c1C(c1ccc(-c2ccccc2)cc1)c1c(O)c2ccccc2oc1=O	> 200 µM	35.5 µM	–
COc1cc2occ(-c3ccc(O)c(O)c3)c(=O)c2cc1O	> 200 µM	26.3 µM	–
O=C(O)C1CSCN1C(=O)c1ccccc1SSc1ccccc1C(=O)N1CSCC1C(=O)O (stereo unspecified)	85.1 µM	> 100 µM	–
Oc1cc2cccc[n+]2c2cc(Cl)ccc12	> 200 µM	91.2 µM	–
CCCN(CCC)C(=O)c1nc(N)nc(-c2ccc(OC)cc2)c1-c1ccc(OC)cc1	> 16.6 µM	> 16.6 µM	–
Cc1ccc(Nc2nc(C)c(C(/C=C/c3ccc4c(c3)OCO4)=N/Nc3ccc([N+](=O)[O-])cc3[N+](=O)[O-])s2)c([N+](=O)[O-])c1	> 60.3 µM	55 µM	–
CCCCCCCNC1=C(O)c2ccccc2C(=O)C1=O	> 200 µM	55 µM	–
O=C(OCc1ccccc1)N1CCNCCN(C(=O)OCc2ccccc2)CCNCC1	> 200 µM	87.1 µM	–

Compound	EC50	IC50	outcome
Cn1nc(-c2ccccc2)c(C(=O)/C=C/c2ccccc2)c(N2CCCC2)c1=O	12.6 µM	52.5 µM	–
CC(=O)O/N=C(/C)c1ccccc1O	> 26.9 µM	> 26.9 µM	–
O=c1[nH]nc(Cc2ccccc2)n1/N=C\c1ccccc1	> 200 µM	> 200 µM	–
Cn1c(=O)c2nc(N3CCCCC3)cnc2n(C)c1=O	> 200 µM	> 200 µM	–
COC(=O)C(COC(=O)/C=C/c1ccc(OC(C)=O)c(OC(C)=O)c1)OC(=O)/C=C/c1ccc(OC(C)=O)c(OC(C)=O)c1 (stereo unspecified)	> 200 µM	25.7 µM	–
CCOC(=O)/C(Cc1cc[n+]([O-])cc1)=N/O	–	–	inactive
CCC(C)N(CCN)C(=O)c1cc2ccccc2c(-c2ccccc2Cl)n1 (stereo unspecified)	–	–	inactive
O=C1NCN(c2ccccc2)C12CCN(CCCSc1ccc(F)cc1)CC2	> 200 µM	18.2 µM	–
COC(=O)C1=C(C(=O)OC)SC(=CC#CC=C2SC(C(=O)OC)=C(C(=O)OC)S2)S1	> 5.62 µM	> 5.62 µM	–
COC(=O)[C@@H](CO)NC(=O)OC(C)(C)C	> 200 µM	> 200 µM	–
COC(=O)c1ccc(OCc2nc3ccccc3[nH]2)cc1	> 200 µM	75.9 µM	–
CN(CCCn1ccnc1[N+](=O)[O-])CCCn1ccnc1[N+](=O)[O-]	> 200 µM	83.2 µM	–
Cc1[nH]c2ncn(N)c(=N)c2c1Cc1ccccc1	> 200 µM	> 200 µM	–
C[C@]12CCC(=O)C[C@H]1CCC(O)[C@@H]2Br (stereo partly specified)	–	–	inactive
O=c1ccc(=Nc2ccc(NNc3ccccc3)cc2)c2c(=O)c3c([N+](=O)[O-])ccc(O)c3c(=O)c1=2	> 100 µM	17.8 µM	–
CCCCCCCCCCCCCCCCN1CCC2SC3CN(CCCCCCCCCCCCCCCC)CCC3SC2C1 (stereo unspecified)	> 100 µM	> 100 µM	–
COc1ccc(C2S/C(=C\c3cccc(O)c3)C(=O)N2NC(=O)Cc2ccccc2)cc1 (stereo unspecified)	> 112 µM	> 112 µM	–
CSS(C)(=O)=O	> 1120 µM	53.7 µM	–
C=C1c2nc3ccccc3n2C=C(c2ccc(OC)cc2)N1c1ccc(OC)cc1	> 200 µM	33.1 µM	–
CCCCNC(=O)OCC(COc1ccccc1OC)OC(=O)NCCCC (stereo unspecified)	> 66.1 µM	> 66.1 µM	–
Cc1cccc2c(N)c3cccc(C(=O)NCC[N+](C)(C)Cc4ccccc4[N+](=O)[O-])c3nc12	> 100 µM	3.55 µM	–

Compound	EC50	IC50	outcome
CC(C)C1CC[C@H](C)C[C@@H]1OC(=O)C(C(=O)O[C@H]1C[C@@H](C)CCC1C(C)C)C(O)[C@@H]1OC(C)(C)O[C@H]1C1COC(C)(C)O1 (stereo partly specified)	> 200 µM	7.41 µM	–
CCCc1cc(=O)oc2c3c(c4c(c12)OC(C)(C)C=C4)O[C@H](C)C(C)[C@@H]3O (stereo partly specified)	0.331 µM	25.1 µM	–
COc1ccc2c(c1)CCc1c-2[nH]c2ccc(OC)cc12	> 200 µM	> 200 µM	–
COc1ccc(CC(CC(=O)O)NC(C)=O)cc1 (stereo unspecified)	> 1000 µM	> 1000 µM	–
CC(=O)OC1COC(Nn2c(=O)[nH]c3ccccc3c2=O)C(OC(C)=O)C1OC(C)=O (stereo unspecified)	> 200 µM	> 200 µM	–
Nc1ccc2c(c1)C1Oc3ccccc3CC1CO2 (stereo unspecified)	> 200 µM	110 µM	–
S=C1CC(N2CCCC2)=Nc2ccccc2N1	> 200 µM	> 200 µM	–
Nc1ccc2[nH]c(C(=O)N3CC(CCl)c4c3cc(N)c3ccccc43)cc2c1 (stereo unspecified)	> 0.2 µM	0.00417 µM	–
COc1cc2c(cc1OC)C1Cc3cc(OC)c(OC)cc3N1CC2 (stereo unspecified)	> 29.5 µM	9.12 µM	–
Cn1c(-c2ccccc2)cc2c3ccsc3c3ccsc3c21	> 200 µM	45.7 µM	–
CC(Cn1c2c(c3cc(O)ccc31)CCc1ccc(O)cc1-2)N(C)C (stereo unspecified)	> 200 µM	12 µM	–
CC(=O)OC(Cc1cc(C=C(C(F)(F)F)C(F)(F)F)cc(C)n1)(C(F)(F)F)C(F)(F)F	> 200 µM	0.955 µM	–
CCOC(=O)C(Cl)(Cl)/S(=N\S(=O)(=O)c1ccccc1)NC(=O)c1ccccc1 (stereo unspecified)	> 200 µM	> 200 µM	–
N/N=C1\C(=O)N(c2ccc(Cl)cc2Cl)C(=O)C(=O)C1c1nc2ccccc2o1 (stereo unspecified)	–	–	inactive
COC12OCC(OC1OCc1ccccc1)C1OC(C)(C)OC12 (stereo unspecified)	> 200 µM	105 µM	–
CCC(C#N)N(Cc1cccc(CN(C(C)=O)C(C#N)CC)c1)C(C)=O (stereo unspecified)	> 200 µM	191 µM	–
CCN(C(=N)C#N)c1ccccc1	> 513 µM	302 µM	–
CC(NCCNC(C)c1cccnc1)c1cccnc1 (stereo unspecified)	> 200 µM	> 200 µM	–
O=C(CN1CCNCCN(CC(=O)N2CCCCC2)CCNCC1)N1CCCCC1	> 200 µM	10.5 µM	–
Cc1nc2c3c(ncn2n1)Oc1c(c(-c2ccccc2)nn1-c1ccccc1)C3c1ccc(Cl)cc1 (stereo unspecified)	> 200 µM	> 200 µM	–
CC(=O)/C(=C\c1cccc([N+](=O)[O-])c1)C(=O)Nc1ccccc1C	> 22.4 µM	> 22.4 µM	–
